# Experimental data taken from paper PMC9570490, “Novel Morpholine-Bearing Quinoline Derivatives as Potential Cholinesterase Inhibitors: The Influence of Amine, Carbon Linkers and Phenylamino Groups” (International Journal of Molecular Sciences, 2022).
# Experiments:
# [1] = biological target: T1, AChE (EC 3.1.1.7, from electric eel) (Electrophorus electricus, UniProt O42275); test: biochemical; conditions: for IC50: means ± SD, at least three independents
# T1 construct: purchased Sigma-Aldrich
# T1 sequence (O42275 24-633): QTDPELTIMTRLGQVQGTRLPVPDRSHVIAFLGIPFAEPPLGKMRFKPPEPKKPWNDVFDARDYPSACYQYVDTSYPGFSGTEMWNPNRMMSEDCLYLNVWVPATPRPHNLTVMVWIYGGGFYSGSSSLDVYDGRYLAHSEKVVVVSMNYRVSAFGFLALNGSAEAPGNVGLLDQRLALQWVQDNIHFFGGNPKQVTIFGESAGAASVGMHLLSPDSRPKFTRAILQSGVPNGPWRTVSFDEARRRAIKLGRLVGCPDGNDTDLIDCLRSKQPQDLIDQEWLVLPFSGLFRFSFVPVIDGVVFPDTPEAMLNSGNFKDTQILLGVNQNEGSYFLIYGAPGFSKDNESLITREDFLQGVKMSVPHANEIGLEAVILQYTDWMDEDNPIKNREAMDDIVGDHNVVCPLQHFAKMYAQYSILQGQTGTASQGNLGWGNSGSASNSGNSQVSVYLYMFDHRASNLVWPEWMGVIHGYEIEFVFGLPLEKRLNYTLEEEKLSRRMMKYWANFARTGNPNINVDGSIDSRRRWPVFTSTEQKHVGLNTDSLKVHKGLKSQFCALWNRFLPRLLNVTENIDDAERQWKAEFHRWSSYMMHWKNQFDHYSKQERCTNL
# Method: (§1) AChE and BChE inhibitory activities of compounds were determined by using a modified Ellman’s method. AChE (EC 3.1.1.7, from electric eel), BChE (EC 3.1.1.8, from horse serum), 5,5′-dithiobis(2nitrobenzoic acid) (DTNB), acetylthiocholine iodide (ATCI) and butyrylthiocholine iodide (BTCI) were purchased from Sigma-Aldrich. The reaction mixture contained 140 μL of 100 mM sodium phosphate buffer (pH 8.0), the enzyme solution (either 0.05 U/mL of AChE, 20 μL; or 0.05 U/mL of BChE, 20 μL), and test compound (20 μL). Assayed solutions of test compounds were pre-incubated with corresponding ChE at 25 °C for 15 min. The reaction was initiated by the addition of 10 μL of 10 mM DTNB and 10 μL of 7.5 mM substrate (ATCI or BTCI). The activity was determined by measuring the increase in absorbance at 412 nm at 37 °C in 10 min intervals using a microplate reader. The percentage of inhibition was calculated from the measured data as follows: (Ac − Ai)/Ac × 100%, where Ai and Ac represent the change in the absorbance in the presence of inhibitor and without inhibitor, respectively.
# [2] = biological target: T2, BChE (EC 3.1.1.8, from horse serum) (Equus caballus, UniProt P81908); test: biochemical; conditions: means ± SD, at least three independents
# T2 construct: BChE (EC 3.1.1.8, from horse serum); purchased Sigma-Aldrich; host or cells: horse serum
# T2 sequence (P81908 whole entry): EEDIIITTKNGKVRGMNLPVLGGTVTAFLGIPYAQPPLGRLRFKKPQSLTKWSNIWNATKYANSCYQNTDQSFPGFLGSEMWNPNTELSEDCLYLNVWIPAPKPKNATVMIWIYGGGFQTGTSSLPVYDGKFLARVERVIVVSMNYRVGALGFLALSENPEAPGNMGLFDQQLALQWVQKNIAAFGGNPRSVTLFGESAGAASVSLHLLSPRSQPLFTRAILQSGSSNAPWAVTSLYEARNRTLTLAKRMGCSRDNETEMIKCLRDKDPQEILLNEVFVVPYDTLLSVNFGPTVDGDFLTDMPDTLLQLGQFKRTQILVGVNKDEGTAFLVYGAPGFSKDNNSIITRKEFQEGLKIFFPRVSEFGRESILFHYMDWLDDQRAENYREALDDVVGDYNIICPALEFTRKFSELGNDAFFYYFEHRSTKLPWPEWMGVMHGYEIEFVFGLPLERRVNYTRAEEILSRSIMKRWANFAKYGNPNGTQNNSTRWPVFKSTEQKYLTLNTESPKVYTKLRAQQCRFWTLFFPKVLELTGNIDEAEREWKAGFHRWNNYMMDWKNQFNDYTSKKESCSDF
# Method: as §1
# [3] = ABTS radical-scavenging assay
# Method: ABTS radical-scavenging activity was measured by using the modified method. The test compound was dissolved in ethanol as 1.0 mg/mL, 0.5 mg/mL, 0.25 mg/mL, 0.125 mg/mL, 0.0625 mg/mL, and 0.03125 mg/mL. Similarly, the ethanol solution of Trolox with the same concentration gradient was prepared as a positive control. ABTS solution at a concentration of 7 mM and potassium persulfate solution at a concentration of 2.45 mM with distilled water were also prepared. The ABTS solution and the potassium persulfate solution were mixed in equal amounts, and then placed in the dark and protected from light for 12 h. The ABTS standard solution was diluted with ethanol until the absorbance value at 734 nm was in the range of 0.7 ± 0.05. Then, 3900 µL of ABTS cation solution was mixed with 100 µL of test compound at different concentrations. The samples were kept in the dark for 10 min at room temperature and absorption was measured at 734 nm on a spectrophotometer. The percentage of ABTS radical-scavenging activity was calculated as follows: (Ac−Ai)/Ac × 100%, where Ai and Ac represented the change in absorbance in the presence and absence of the test sample, respectively.
# [4] = Lipophilicity (LogP) determination, shake-flask octanol/water; format: physicochemical; conditions: HPLC, read-out: LogP (experimental)
# Source text: For anti-Alzheimer drug candidates, the ability to cross the blood–brain barrier (BBB) and to enter the central nervous system (CNS) is crucial to achieve their pharmacological target binding and activity, and CNS drugs require more strict rules for a successful penetration. […] Besides, for molecules to penetrate the BBB, a topological polar surface area (TPSA) value less than 90 Å ^2 is usually needed and molecules with a TPSA of greater than 120 Å ^2 tend to be poor in permeating cell membranes. Therefore, the molar mass (MW), LogP, and TPSA of all target compounds were simulated by ChemDraw 19.0 (Table 1). […] Because LogP was thought as an important physicochemical parameter to evaluate the ability to cross BBB, the LogP of some compounds was further assessed in experiments.
# The lipophilicities of test compounds were determined using the traditional shake-flask method. A solid test compound (2 mg) was placed into a 10 mL pear-shaped flask, and measured volumes of octanol and water were added for logP determination. The resulting biphasic mixture was stirred for 24 h and then left without stirring for 12 h to allow phase separation. The test compound in each phase was sampled and quantitated using HPLC. The areas under the peaks were divided and the log taken.
# [5] = Water solubility, shake-flask method; format: physicochemical; conditions: thermodynamic from solid, double distilled water, 37 °C
# Method: Water solubility is regarded as another vital descriptor for BBB penetration, where high solubility is considered as a prerequisite for a rapid absorption and higher bioavailability of a drug candidate. […] With this experiment, we have obtained their data as 0.62, 3.03, 12.9, and […] for the selected compounds 11a, 11g, 12a, and 12c, respectively.
# Solubility was determined by using the shake-flask method.The desired amount of the compound was placed in a test tube, to which an appropriate amount of double distilled water was introduced. The suspension was agitated on a plate shaker at 37 °C for 24 h. After centrifuging, HPLC analyses of supernatant was performed. The solubility of the compound was obtained from its HPLC result.
SMILES,SI for AChE = IC50 BChE/IC50 AChE [1],IC50 [1] [µM],IC50 [2] [µM],ABTS radical-scavenging IC50 [3] [mg/L],IC50 [3] [µM],logP at 24 h [4],solubility at 24 h [5] [mg/mL]
"COc1cc2c(Nc3ccccc3Cl)c([N+](=O)[O-])cnc2cc1OCCCN1CCOCC1 [11b, 6-Methoxy-7-(3-Morpholinopropoxy)-3-Nitro-4-(2-Chlorophenylamino)-Quinoline]",10.42,12.5 ± 0.21,130 ± 4.62,,,,
"COc1cc2c(Nc3cccc(Cl)c3)c([N+](=O)[O-])cnc2cc1OCCCN1CCOCC1 [11c, 6-Methoxy-7-(3-Morpholinopropoxy)-3-Nitro-4-(3-Chlorophenylamino)-Quinoline]",3.55,32.4 ± 0.16,114 ± 5.36,,,,
"COc1cc2c(Nc3ccc(Cl)cc3)c([N+](=O)[O-])cnc2cc1OCCCN1CCOCC1 [11d, 6-Methoxy-7-(3-Morpholinopropoxy)-3-Nitro-4-(4-Chlorophenylamino)-Quinoline]",0.92,88.7 ± 1.1,82.4 ± 3.06,,,,
"COc1cc2c(Nc3ccc(O)cc3)c([N+](=O)[O-])cnc2cc1OCCCN1CCOCC1 [11e, 6-Methoxy-7-(3-Morpholinopropoxy)-3-Nitro-4-(4-Hydroxylphenylamino)-Quinoline]",>4.35,34.47 ± 0.09,> 150,12.01 ± 1.49,26.4 ± 3.28,,
"COc1ccc(Nc2c([N+](=O)[O-])cnc3cc(OCCCN4CCOCC4)c(OC)cc23)cc1 [11f, 6-Methoxy-7-(3-Morpholinopropoxy)-3-Nitro-4-(4-Methoxyphenylamino)-Quinoline]",7.54,12.8 ± 0.55,96.6 ± 4.75,4.25 ± 0.63,9.07 ± 1.34,,
"COc1cc2c(Nc3ccccc3Cl)c([N+](=O)[O-])cnc2cc1OCCN1CCOCC1 [11h, 6-Methoxy-7-(2-Morpholinoethoxy)-3-Nitro-4-(2-Chlorophenylamino)-Quinoline]",12.55,6.46 ± 0.77,81.1 ± 4.03,,,,
"COc1cc2c(Nc3cccc(Cl)c3)c([N+](=O)[O-])cnc2cc1OCCN1CCOCC1 [11i, 6-Methoxy-7-(2-Morpholinoethoxy)-3-Nitro-4-(3-Chlorophenylamino)-Quinoline]",11.08,10 ± 0.52,111 ± 5.59,,,,
"COc1cc2c(Nc3ccc(Cl)cc3)c([N+](=O)[O-])cnc2cc1OCCN1CCOCC1 [11j, 6-Methoxy-7-(2-Morpholinoethoxy)-3-Nitro-4-(4-Chlorophenylamino)-Quinoline]",8.90,8.63 ± 0.4,76.8 ± 3.76,,,,
"COc1cc2c(Nc3ccc(O)cc3)c([N+](=O)[O-])cnc2cc1OCCN1CCOCC1 [11k, 6-Methoxy-7-(2-Morpholinoethoxy)-3-Nitro-4-(4-Hydroxylphenylamino)-Quinoline]",>8.11,18.5 ± 1.74,> 150,5.75 ± 1.37,,,
"COc1ccc(Nc2c([N+](=O)[O-])cnc3cc(OCCN4CCOCC4)c(OC)cc23)cc1 [11l, 6-Methoxy-7-(2-Morpholinoethoxy)-3-Nitro-4-(4-Methoxyphenyamino)-Quinoline]",7.03,9.08 ± 0.53,63.9 ± 2.87,2.75 ± 0.53,6.05 ± 1.17,,
"COc1cc2c(Nc3ccccc3)c([N+](=O)[O-])cnc2cc1OCCCCN1CCOCC1 [11m, 6-Methoxy-7-(4-Morpholinobutoxy)-3-Nitro-4-Phenylamino-Quinoline]",>11.24,13.34 ± 0.07,> 150,,,,
"COc1cc2c(Nc3ccccc3Cl)c([N+](=O)[O-])cnc2cc1OCCCCN1CCOCC1 [11n, 6-Methoxy-7-(4-Morpholinobutoxy)-3-Nitro-4-(2-Chlorophenylamino)-Quinoline]",>1.75,85.57 ± 0.04,> 150,,,,
"COc1cc2c(Nc3cccc(Cl)c3)c([N+](=O)[O-])cnc2cc1OCCCCN1CCOCC1 [11o, 6-Methoxy-7-(4-Morpholinobutoxy)-3-Nitro-4-(3-Chlorophenylamino)-Quinoline]",<0.77,> 150,116 ± 5.36,,,,
"COc1cc2c(Nc3ccc(Cl)cc3)c([N+](=O)[O-])cnc2cc1OCCCCN1CCOCC1 [11p, 6-Methoxy-7-(4-Morpholinobutoxy)-3-Nitro-4-(4-Chlorophenylamino)-Quinoline]",1.08,90.46 ± 0.06,98.1 ± 0.02,,,,
"COc1cc2c(Nc3ccc(O)cc3)c([N+](=O)[O-])cnc2cc1OCCCCN1CCOCC1 [11q, 6-Methoxy-7-(4-Morpholinobutoxy)-3-Nitro-4-(4-Hydroxyphenylamino)-Quinoline]",>4.07,36.8 ± 0.45,> 150,26.12 ± 2.13,55.8 ± 4.55,,
"COc1ccc(Nc2c([N+](=O)[O-])cnc3cc(OCCCCN4CCOCC4)c(OC)cc23)cc1 [11r, 6-Methoxy-7-(4-Morpholinobutoxy)-3-Nitro-4-(4-Methoxyphenylamino)-Quinoline]",5.65,18.9 ± 0.51,106 ± 1.16,11.25 ± 1.27,23.3 ± 2.63,,
"COc1cc2c(Nc3ccccc3)c(N)cnc2cc1OCCCN1CCOCC1 [12a, 6-Methoxy-7-(3-Morpholinopropoxy)-3-Amino-4-Phenylamino-Quinoline]",3.34,9.13 ± 0.42,30.5 ± 2.48,,,2.07,12.9
"COc1cc2c(Nc3ccccc3Cl)c(N)cnc2cc1OCCCN1CCOCC1 [12b, 6-Methoxy-7-(3-Morpholinopropoxy)-3-Amino-4-(2-Chlorophenylamino)-Quinoline]",3.01,43.3 ± 0.68,130 ± 3.76,,,,
"COc1cc2c(Nc3cccc(Cl)c3)c(N)cnc2cc1OCCCN1CCOCC1 [12c, 6-Methoxy-7-(3-Morpholinopropoxy)-3-Amino-4-(3-Chlorophenylamino)-Quinoline]",1.26,22.1 ± 0.33,27.8 ± 2.16,,,2.35,10.5
"COc1cc2c(Nc3ccc(Cl)cc3)c(N)cnc2cc1OCCCN1CCOCC1 [12d, 6-Methoxy-7-(3-Morpholinopropoxy)-3-Amino-4-(4-Chlorophenylamino)-Quinoline]",6.63,21.84 ± 0.2,145 ± 4.25,,,,
"Cc1c(C)c2c(c(C)c1O)CCC(C)(C(=O)O)O2 (centres unmarked) [Trolox, reference compound]",,,,2.76 ± 0.19,11 ± 0.76,,
